The subject of test [1] is Jurkat cells. The test is described as follows: Apoptosis inhibition activity in human T-lymphocyte cells Jurkat (anti-FAS antibody, intracellular ATP). The settings on record: compound 50 nM, 1 μg/ml anti-FAS antibody 24 h, ATP luminescence. It counts as cell-based. On the procedure:
To evaluate the effect of the compound of the present invention on apoptosis, Jurkat (ATCC) cells were treated with anti-FAS antibody CH-11 (Merck) to induce apoptosis via the Fas (CD95) receptor, which was assessed by the amount of intracellular ATP.
Jurkat cells were cultured in RPMI 1640 growth medium comprising 10% FBS and antibiotics (100 U/ml Penicillin, 0.1 mg/ml Streptomycin) under 37° C., 5% CO2 conditions. Cultured cells were seeded in growth medium to a concentration of 8×10^4 cells/well in 96-well plates (SPL), pretreated with compound at a concentration of 50 nM for 1 hour, and then treated with 1 μg/ml anti-FAS antibody for 24 hours in an incubator. After 24 h, an ATP lite Luminescence assay kit (PerkinElmer) was used to measure ATP and luminescence was measured at 580 nm using a CLARIOstar Plus spectrometer. If the inhibitory activity is 30% or more, it is denoted as a′, if it is 20% or more but less than 30%, it is denoted as b′, if it is 10% or more but less than 20%, it is denoted as c′, and if it is less than 10%, it is denoted as d′.

The test system of test [2] is Secreted IL-1β in THP-1 cells. Nature of the test: Interleukin-1β inhibitory activity in human monocytic cells THP-1 (ELISA). The format is cell-based. The settings on record: compound 100 nM, PMA-differentiated THP-1, LPS 10 μg/ml then 5 mM ATP, 24 h. On the procedure: Caspase-1 is known as […] (ICE). Activated Caspase-1 is involved in the cleavage of pro-form IL-1β to produce the mature form, which is then secreted to induce inflammation. Therefore, the compounds identified in Experimental example 1 were tested to determine if their Caspase-1 inhibitory activity affected the production of […].
THP-1 (ATCC) cells were cultured in RPMI 1640 (Hyclone) growth medium comprising 10% Fetal bovine serum (FBS, Gibco) and antibiotics (100 U/ml Penicillin, 0.1 mg/ml Streptomycin, Cytiva) under 37° C., 5% CO2 conditions. Cultured THP-1 cells were seeded in growth medium to a concentration of 3×10^5 cells/well in 24-well plates (Celvest) and then treated with 1 μM Phorbol 12-myristate 13-acetate (PMA) (Sigma) for 24 hours to induce differentiation. Differentiated THP-1 were pre treated with 10 μg/ml Lipopolysaccharide (LPS, from E. coli 0111:B4 (InvivoGen)) in serum free RPMI 1640 medium for 24 hours to induce an inflammatory response. After removal of LPS, the compounds were pretreated for 1 h at a concentration of 100 nM using the same medium, followed by the addition of 5 mM ATP (InvivoGen) and incubation for 24 h in an incubator. The treated medium was collected and centrifuged, and IL-1β was quantified using an Enzyme linked immunoassay kit (ELISA kit, R&D system), and absorbance was measured at 450 nm using a CLARIOstar Plus spectrometer. Inhibitory activity was denoted as a if it was 50% or more, b if it was 30% or more but less than 50%, c if it was 10% or more but less than 30%, and d if it was less than 10%.
A general note: An ELISA detects its analyte on a solid surface through an enzyme-linked reagent.

Test [3] deals with T1, recombinant human Caspase-1 (Homo sapiens, UniProt P29466).
T1 construct: purchased Enzo life science
T1 sequence (P29466 120-297 limits assumed): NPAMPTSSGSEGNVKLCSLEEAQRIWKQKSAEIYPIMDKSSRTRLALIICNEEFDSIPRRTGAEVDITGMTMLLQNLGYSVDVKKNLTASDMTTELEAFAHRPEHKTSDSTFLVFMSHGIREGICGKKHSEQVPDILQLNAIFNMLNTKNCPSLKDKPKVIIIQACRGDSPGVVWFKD
T1 sequence (P29466 317-404 limits assumed): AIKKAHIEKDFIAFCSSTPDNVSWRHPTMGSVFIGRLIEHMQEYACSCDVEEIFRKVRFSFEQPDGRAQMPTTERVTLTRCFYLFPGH
The test is described as follows: Caspase-1 inhibitory activity, fluorescent substrate Ac-YVAD-AFC. It counts as biochemical. As for the experimental part: To determine the Caspase-1 inhibitory activity of the compounds of the present invention prepared in Example, Caspase-1 activity was measured using a substrate with a fluorescent dye attached to it. […] The compound was dissolved in DMSO and stored at −20° C. Enzymatic reactions were carried out in a buffer comprising 50 mM HEPES (pH 8.0), 50 mM KCl, 200 mM NaCl, 10 mM DTT, 0.1% CHAPS (w/v). Enzyme inactivation was measured in the presence of different concentrations of the compound using the fluorescent substrate N-Acetyl-Tyr-Val-Ala-Asp-7-amido-4-trifluoromethylcoumarin (Ac-YVAD-AFC) (Sigma) at a concentration of 50 μM and 1 unit of recombinant human Caspase-1 (Enzo life science). A CLARIOstar Plus spectrometer (BMG Labtech) was used to measure the reaction rate as a function of time in the 400/505 nm (Ex/Em) wavelength band. […] If kobs/[I] is 20 or more, it is denoted as A, if it is 10 or more but less than 20, it is denoted as B, if it is 1 or more but less than 10, it is denoted as C, and if it is less than 1, it is denoted as D.
In the above equation, At means the enzyme reaction rate at time t (min), and Amax means the maximum reaction rate.

Setting [4] is: pH 8, 1 unit recombinant human Caspase-1, 50 μM Ac-YVAD-AFC, read-out: kobs/[I] Caspase-1.
The mark [5] stands for this setting: pH 8, read-out: kobs/[I] Caspase-1.

Structures are written as SMILES. Like-named read-outs stand apart in the source and are kept apart here. A value given as a limit tells only on which side of the number the result lay.

As usually defined, the inhibition is the relative decrease from the control value, in per cent. Lower therefore signals a weak effect. `CCC(C(=O)NC(CC(=O)O)C(=O)CF)N1Cc2ccc(-c3ccc(OC)nc3)cc2C1=O` (stereo not drawn) [Compound 13, 5-fluoro-3-(2-(6-(6-methoxypyridin-3-yl)-1-oxoisoindolin-2-yl)butanamido)-4-oxopentanoic acid]: the inhibition at 0.05 µM in test [1] was in the range of 20 to 30%. Besides, the inhibition at 0.1 µM in test [2] was ≥ 50%. For the same molecule, in test [3] (setting [4]), the kinact/KI was in the range of 0.0167 to 0.167 M⁻¹ s⁻¹.

On to `O=C(O)CC(NC(=O)CN1Cc2ccc(-c3csc4ccccc34)cc2C1=O)C(=O)CF` (stereo not drawn) [Compound 40, 3-(2-(6-(benzo[b]thiophen-3-yl)-1-oxoisoindolin-2-yl)acetamido)-5-fluoro-4-oxopentanoic acid], for which the inhibition at 0.05 µM in test [1] was < 10%. The inhibition at 0.1 µM in test [2] is < 10%. In addition, the kinact/KI in test [3] (setting [5]) was in the range of 0.0167 to 0.167 M⁻¹ s⁻¹.

In turn, `CCC(C(=O)NC(CC(=O)O)C(=O)CF)N1Cc2ccc(-c3ccccc3)cc2C1=O` (stereo not drawn) [Compound 1, 5-fluoro-4-oxo-3-(2-(1-oxo-6-phenylisoindolin-2-yl)butanamido)pentanoic acid] gave an inhibition at 0.05 µM in test [1] of 20 to 30%. The molecule also yielded an inhibition at 0.1 µM in test [2] of 10 to 30%. In addition, the kinact/KI in test [3] (setting [4]) lay in the range of 0.0167 to 0.167 M⁻¹ s⁻¹.

For the molecule `CCC(C(=O)NC(CC(=O)O)C(=O)CF)N1Cc2ccc(-c3ccc4c(c3)OCCO4)cc2C1=O` (stereo not drawn) [Compound 27, 3-(2-(6-(2,3-dihydrobenzo[b][1,4]dioxin-6-yl)-1-oxoisoindolin-2-yl)butanamido)-5-fluoro-4-oxopentanoic acid], the inhibition at 0.05 µM in test [1] was ≥ 30%. Further, in test [2], the inhibition at 0.1 µM was in the range of 10 to 30%. The kinact/KI in test [3] (setting [4]) fell in the range of 0.0167 to 0.167 M⁻¹ s⁻¹.

With `CCC(C(=O)NC(CC(=O)O)C(=O)CF)N1Cc2ccc(N3CCn4cc(C(F)(F)F)nc4C3)cc2C1=O` (stereo not drawn) [Compound 10, 5-fluoro-4-oxo-3-(2-(1-oxo-6-(2-(trifluoromethyl)-5,6-dihydroimidazo[1,2-a]pyrazin-7(8H)-yl)isoindolin-2-yl)butanamido)pentanoic acid], the inhibition at 0.05 µM in test [1] was in the range of 10 to 20%. In test [2], this molecule registered an inhibition at 0.1 µM of 30 to 50%. For the same molecule, the kinact/KI in test [3] (setting [4]) was 0.0167 to 0.167 M⁻¹ s⁻¹.

On to `CCC(C(=O)NC(CC(=O)O)C(=O)CF)N1Cc2ccc(-c3cncc4ccccc34)cc2C1=O` (stereo not drawn) [Compound 29, 5-fluoro-3-(2-(6-(isoquinolin-4-yl)-1-oxoisoindolin-2-yl)butanamido)-4-oxopentanoic acid], for which the inhibition at 0.05 µM in test [1] is < 10%. Besides, in test [2], the inhibition at 0.1 µM was < 10%. In test [3] (setting [4]), the kinact/KI lay within 0.0167 to 0.167 M⁻¹ s⁻¹.

In test [1], `CC(C)[C@@H](C(=O)NC(CC(=O)O)C(=O)CF)N1Cc2ccc(-c3coc4ccccc34)cc2C1=O` (stereo partly drawn) [Compound 44, 3-((S)-2-(6-(benzofuran-3-yl)-1-oxoisoindolin-2-yl)-3-methylbutanamido)-5-fluoro-4-oxopentanoic acid] showed an inhibition at 0.05 µM of 20 to 30%. In test [2], the inhibition at 0.1 µM was ≥ 50%. Further, the kinact/KI in test [3] (setting [4]) lay in the range of 0.167 to 0.333 M⁻¹ s⁻¹.

In the case of `CC[C@@H](C(=O)NC(CC(=O)O)C(=O)CF)N1Cc2ccc(-c3ccc4[nH]c(=O)[nH]c4c3)cc2C1=O` (stereo partly drawn) [Compound 56, 5-fluoro-4-oxo-3-((S)-2-(1-oxo-6-(2-oxo-2,3-dihydro-1H-benzo[d]imidazol-5-yl)isoindolin-2-yl)butanamido)pentanoic acid], the inhibition at 0.05 µM in test [1] is < 10%. In addition, the inhibition at 0.1 µM in test [2] is ≥ 50%. Besides, the kinact/KI in test [3] (setting [4]) was 0.167 to 0.333 M⁻¹ s⁻¹.

The molecule `CC[C@@H](C(=O)NC(CC(=O)O)C(=O)CF)N1Cc2cc(-c3ccc4c(c3)OCCO4)ccc2C1=O` (stereo partly drawn) [Compound 58, 3-((S)-2-(5-(2,3-dihydrobenzo[b][1,4]dioxin-6-yl)-1-oxoisoindolin-2-yl)butanamido)-5-fluoro-4-oxopentanoic acid] displayed an inhibition at 0.05 µM in test [1] of 10 to 20%. Also, the inhibition at 0.1 µM in test [2] lay in the range of 10 to 30%. Besides, the kinact/KI in test [3] (setting [5]) lay within 0.0167 to 0.167 M⁻¹ s⁻¹.

`CCC(C(=O)NC(CC(=O)O)C(=O)CF)N1Cc2ccc(-c3ccn(C)n3)cc2C1=O` (stereo not drawn) [Compound 25, 5-fluoro-3-(2-(6-(1-methyl-1H-pyrazol-3-yl)-1-oxoisoindolin-2-yl)butanamido)-4-oxopentanoic acid] came in with an inhibition at 0.1 µM in test [2] of 10 to 30%. Besides, the kinact/KI in test [3] (setting [4]) was 0.0167 to 0.167 M⁻¹ s⁻¹.

Regarding `CCC(C(=O)NC(CC(=O)O)C(=O)CF)N1Cc2ccc(-c3ccc4scnc4c3)cc2C1=O` (stereo not drawn) [Compound 32, 3-(2-(6-(benzo[d]thiazol-5-yl)-1-oxoisoindolin-2-yl)butanamido)-5-fluoro-4-oxopentanoic acid], in test [2], the inhibition at 0.1 µM was < 10%. In addition, the kinact/KI in test [3] (setting [4]) was in the range of 0.0167 to 0.167 M⁻¹ s⁻¹.

Regarding `CCC(C(=O)NC(CC(=O)O)C(=O)CF)N1Cc2ccc(-c3cnn(C)c3)cc2C1=O` (stereo not drawn) [Compound 24, 5-fluoro-3-(2-(6-(1-methyl-1H-pyrazol-4-yl)-1-oxoisoindolin-2-yl)butanamido)-4-oxopentanoic acid], the inhibition at 0.1 µM in test [2] is 10 to 30%. Further, the kinact/KI in test [3] (setting [4]) lay in the range of 0.0167 to 0.167 M⁻¹ s⁻¹.

Consider `CCC(C(=O)NC(CC(=O)O)C(=O)CF)N1Cc2ccc(-c3cccc4cnccc34)cc2C1=O` (stereo not drawn) [Compound 36, 5-fluoro-3-(2-(6-(isoquinolin-5-yl)-1-oxoisoindolin-2-yl)butanamido)-4-oxopentanoic acid], for which the inhibition at 0.1 µM in test [2] was < 10%. The kinact/KI in test [3] (setting [5]) was 0.0167 to 0.167 M⁻¹ s⁻¹.

Consider `CCC(C(=O)NC(CC(=O)O)C(=O)CF)N1Cc2ccc(-c3cnc(N)nc3)cc2C1=O` (stereo not drawn) [Compound 21], for which the inhibition at 0.1 µM in test [2] lay in the range of 30 to 50%. Also, the kinact/KI in test [3] (setting [4]) lay in the range of 0.0167 to 0.167 M⁻¹ s⁻¹.

As to `CC[C@@H](C(=O)NC(CC(=O)O)C(=O)CF)N1Cc2cc(-c3cccc4ccccc34)ccc2C1=O` (stereo partly drawn) [Compound 61, 5-fluoro-3-((S)-2-(5-(naphthalen-1-yl)-1-oxoisoindolin-2-yl)butanamido)-4-oxopentanoic acid], the inhibition at 0.1 µM in test [2] was < 10%. For the same molecule, the kinact/KI in test [3] (setting [5]) is < 0.0167 M⁻¹ s⁻¹.

Take `CCC(C(=O)NC(CC(=O)O)C(=O)CF)N1Cc2ccc(-c3ccc(S(C)(=O)=O)cc3F)cc2C1=O` (stereo not drawn) [Compound 12, 5-fluoro-3-(2-(6-(2-fluoro-4-(methylsulfonyl)phenyl)-1-oxoisoindolin-2-yl)butanamido)-4-oxopentanoic acid]: in test [2], the inhibition at 0.1 µM was in the range of 10 to 30%. Also, the kinact/KI in test [3] (setting [4]) lay within 0.0167 to 0.167 M⁻¹ s⁻¹.

As to `CC(C)[C@@H](C(=O)NC(CC(=O)O)C(=O)CF)N1Cc2ccc(N3CCCC3)cc2C1=O` (stereo partly drawn) [Compound 43, 5-fluoro-3-((S)-3-methyl-2-(1-oxo-6-(pyrrolidin-1-yl)isoindolin-2-yl)butanamido)-4-oxopentanoic acid], the inhibition at 0.1 µM in test [2] was in the range of 10 to 30%. The kinact/KI in test [3] (setting [5]) is < 0.0167 M⁻¹ s⁻¹.

As to `CCC(C(=O)NC(CC(=O)O)C(=O)CF)N1Cc2ccc(Nc3cccc4ccccc34)cc2C1=O` (stereo not drawn) [Compound 11, 5-fluoro-3-(2-(6-(naphthalen-1-ylamino)-1-oxoisoindolin-2-yl)butanamido)-4-oxopentanoic acid], the inhibition at 0.1 µM in test [2] lay in the range of 30 to 50%. The kinact/KI in test [3] (setting [4]) was < 0.0167 M⁻¹ s⁻¹.
